This is an account of results in patent US4547507A, “Benzothiopyranopyridinones” (Roussel Uclaf, priority 1982, dated 1985).

In assay [1] the target is rat striatal dopamine receptor (Rattus norvegicus, UniProt P61169). The assay can be described thus: Test A: [3H]Spiroperidol displacement from rat striatal dopamine receptor binding sites. The note with it: rat striatal membranes, [3H]spiroperidol 0.19 nM, 37° C., 10 minutes, pH 7.6; read-out: Test A receptor DA IC50. On the procedure: Test A--[^3 H Spiroperidol displacement from rat striatal dopamine receptor binding sites
rat striatal dopamine receptor, sequence (P61169 whole entry): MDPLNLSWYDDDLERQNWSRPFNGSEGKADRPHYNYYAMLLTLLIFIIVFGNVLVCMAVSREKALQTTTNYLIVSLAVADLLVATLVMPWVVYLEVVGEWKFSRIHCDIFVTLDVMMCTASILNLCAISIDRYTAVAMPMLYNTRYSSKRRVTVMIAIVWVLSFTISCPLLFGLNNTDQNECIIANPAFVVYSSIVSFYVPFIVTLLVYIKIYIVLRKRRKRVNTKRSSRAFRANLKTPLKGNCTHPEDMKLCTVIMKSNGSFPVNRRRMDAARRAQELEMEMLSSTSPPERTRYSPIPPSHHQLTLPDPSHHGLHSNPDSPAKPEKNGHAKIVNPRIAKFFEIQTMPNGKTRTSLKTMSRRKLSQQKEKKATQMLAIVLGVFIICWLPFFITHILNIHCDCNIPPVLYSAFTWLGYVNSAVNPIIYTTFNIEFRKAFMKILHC
(a) Radioligand--[phenyl-4-(n)-^3 H]Spiroperido (Amersham International, TRK 570, 21 Ci/mmol was used as a 1 μCi/1 μl solution in ethanol and this solution was diluted to 250 μCi in 1 ml of ethanol to produce a stock solution. This stock solution was diluted 3.2/10,000 in assay buffer and 0.1 ml volumes of this were added to 2 ml binding assays =0.19 nM [^3 H]spiroperidol and =[…]
(b) Assay buffer--The assay buffer was a modified 50 mM Tris HCl buffer with a pH of 7.6 containing the following additions: NaCl-120 mM, KCl-5 mM, MgCl2 -1 mM, CaCl2 -2 mM, Pargyline-10 μM and 1-Ascorbic Acid-0.1%
(c) Membrane preparation--The striata were dissected from male CFHB rats and homogenized in 20 volumes of ice cold 0.32M sucrose with a Teflon/glass homogenizer and the homogenate was centrifuged at 1000 g for 10 minutes. The resulting supernatant was recentrifuged at 30,000 g for 30 minutes and the supernatant was discarded and the pellet was resuspended by homogenization in 30 volumes of ice cold assay buffer.
(d) Non-specific binding--Non-specific binding was accounted for by the inclusion of 1 μM(+)butaclamol in blank binding assays which required a stock solution of 20 μM in distilled water.
(e) Displacing compounds--Solutions were prepared at 20x final assay concentration in distilled water.
(f) Binding assay protocol--1.3 ml assay buffer, 0.5 ml membrane suspension, 0.1 ml distilled H2 O or drug solution and 0.1 ml [^3 H]spiroperidol dilution Binding assays were made up in ice with the [^3 H]spiroperidol being added last and incubated at 37° C. for 10 minutes. The bound ligand was separated by filtration through Whatman GF/C filters under vacuum followed by 2×10 ml rinses of ice cold assay buffer. The filters were dried at 80° C. and counted in 5 ml volumes of ECONOFLUOR (NEN) scintillation cocktail. All binding assays, controls, blanks and each of four displacer concentration were run in triplicate. IC50 values (Test A) were obtained graphically from log dose versus percent inhibition of specific binding plots.

In assay [2] the target is rat cortical muscarinic receptor. The experiment in a line: Test D: [3H]Quinuclidinyl benzylate displacement from rat cortical muscarinic receptor binding sites. Particulars: rat cortical membranes, [3H]quinuclidinyl benzylate 0.31 nM, 25° C., 60 minutes; read-out: Test D MUSC IC50. On the procedure: Test D--[^3 H]Quinuclidinyl benzylate displacement from rat cortical muscarinic receptor binding sites
(a) Radioligand--DL-[3-^3 H]Quinuclidinyl benzylate (Amersham International, TRK 506, 12 Ci/mmol) was used as a 1 μCi/1 μl solution and this stock solution was diluted 1/13333 in assay buffer and 0.1 ml volumes of this were added to 2 ml binding assay =0.31 nM and =0.0075 μCi/binding assay
(§1) (b) Membrane preparation--As for Test B
(c) Non-specific binding--Non-specific binding was accounted for by the inclusion of 100 μM oxotremorine sesquifumarate in blank binding assays and this required a stock solution of 2 mM in distilled H2 O.
(d) Displacement compounds--As for Test B
(e) Assay protocol--As for Test B with the exception that the binding assays were incubated at 25° C. for 60 minutes.

For a further assay, the target named is rat cortical α2 receptor. The experiment in a line: Test C: [3H]Dihydroergocryptine displacement from rat cortical α2 receptor binding sites. Particulars: rat cortical membranes, [3H]dihydroergocryptine 0.45 nM, 25° C., 45 minutes in the dark; approximately 80% of binding is α2. On the procedure:
Test C--[^3 H]Dihydroergocryptine displacement from rat cortical α2 *receptor binding sites
(a) Radioligand--[9,10(n)-^3 H]9,10-Dihydroergocryptine (Amersham International, TRK 555, 17.5 Ci/mmole) was used as a 1 μCi/1 μl solution and this stock solution was diluted 1/6250 in assay buffer and 0.1 ml volumes of this were added to 2 ml binding assays. =0.45 nM and =0.016 μCi/binding assay
*In cortical membranes, [^3 H]dihydroergocryptine binds to both α1 and α2 receptor binding sites under the conditions of assay described here, approximately 80% of the binding is associated with α2 receptors.
as §1
(c) Non-specific binding--As for Test B
(d) Displacing compounds--As for Test B
(e) Assay protocol--As for Test B with the exception that the binding assays were incubated at 25° C. for 45 minutes in the dark.

In a further assay the target is rat cortical α1 receptor. The assay can be described thus: Test B: [3H]Prazosin displacement from rat cortical α1 receptor binding sites. The note with it: rat cerebral cortex membranes, [3H]prazosin 0.1 nM, 25° C., 30 minutes, pH 7.5. On the procedure:
Test B--[^3 H]Pyrazosin displacement from rat cortical α1 receptor binding sites (a) Radioligand--[^3 H]Prazosin (Amersham International, TRK 647, 28 Ci/mmole) was used as a 1 μCi/1 μl solution and this stock solution was diluted 1/18,000 in assay buffer and 0.1 ml volumes of this were added to 2 ml binding assay. =0.1 nM [^3 H]Prazosin and =0.0056 μCi/binding assay (b) Membrane preparation--The cerebral cortices were dissected from male CFHB rats and homogenized in 20 volumes of ice cold 0.32M sucrose using a Teflon/glass homogenizer and the homogenate was centrifuged at 1000 g for 10 minutes. The resulting pellet was discarded and the supernatant was recentrifuged at 30,000 g for 30 minutes. The supernatant was discarded and the pellet was resuspended by homogenization in 50 volumes of 50 mM pH 7.5 Tris HCl buffer (assay buffer). (c) Non-specific binding--Non-specific binding was accounted for by the inclusion of 100 μM 1-noradrenaline in blank binding assays which required a stock solution of 2 mM 1-noradrenaline made up fresh daily in 0.1% 1-ascorbic acid. (d) Displacing compounds--Solutions were prepared at 20x final assay concentration in distilled water. (e) Binding assay protocol--1.3 ml assay buffer, 0.5 ml membrane suspension, 0.1 ml distilled H2 O or drug solution and 0.1 ml [^3 H]pyrazosin dilution Binding assays were made up in ice with the [^3 H]pyrazosin being added last and incubated at 25° C. for 30 minutes. The bound ligand was separated by filtration through Whatman GF/C glass fibre filters under vacuum followed by 2×10 ml rinses of ice cold assay buffer. The filters were dried at 80° C. and counted in 5 ml volumes of ECONOFLUOR (NEN) scintillation cocktail. All binding assays, controls, blanks and each of four displacer concentrations were run in triplicate. IC50 values (Test B) were obtained graphically from log dose versus percent inhibition of specific binding plots.

Each structure is given as a SMILES string. Where a name gives a salt, the structure may show the parent alone.

With `CCN1CCc2sc3ccccc3c(=O)c2C1` [Example 13, 2-ethyl-1,2,3,4-tetrahydro-10H-(1)-benzothiopyrano[3,2-c]pyridin-10-one hydrochloride], the IC50 came out at 1000 nM in assay [1], 44700 nM in assay [2], 290 nM at rat cortical α2 receptor and 1500 nM on rat cortical α1 receptor.

Regarding `O=C(CN1CCc2sc3ccccc3c(=O)c2C1)c1ccccc1` [Example 33], the IC50 in assay [1] is over 10000 nM; in assay [2], over 100000 nM; at rat cortical α2 receptor it was over 10000 nM; at rat cortical α1 receptor, over 10000 nM.

As for `O=c1c2c(sc3ccccc13)CCNC2` [Example 1, 1,2,3,4-tetrahydro-10H-(1)-benzothiopyrano[3,2-c]pyridin-10-one hydrochloride], the IC50 stood at 6500 nM in assay [1], 32000 nM in assay [2], 600 nM on rat cortical α2 receptor and 6600 nM at rat cortical α1 receptor.

`CCCN1CCc2sc3ccccc3c(=O)c2C1` [Example 11, 1,2,3,4-tetrahydro-2-n-propyl-10H-(1)-benzothiopyrano[3,2-c]pyridin-10-one hydrochloride]: the half-inhibitory concentration (IC50) in assay [1] was 490 nM; in assay [2], over 100000 nM; on rat cortical α2 receptor, 150 nM; at rat cortical α1 receptor, 1300 nM.

With `COc1ccc2sc3c(c(=O)c2c1)CN(CC1CCCCC1)CC3` [Example 38, 2-cyclohexylmethyl-8-methoxy-1,2,3,4-tetrahydro-10H-(1)-benzothiopyrano[3,2-c]pyridin-10-one hydrochloride], the IC50 was 760 nM in assay [1], 91200 nM in assay [2], 2190 nM at rat cortical α2 receptor and over 10000 nM on rat cortical α1 receptor.

For the compound `N#CCCN1CCc2sc3ccccc3c(=O)c2C1` [Example 22, 2-(2-cyanoethyl)-1,2,3,4-tetrahydro-10H-(1)-benzothiopyrano[3,2-c]pyridin-10-one hydrochloride], the IC50 was over 10000 nM in assay [1], over 100000 nM in assay [2], over 10000 nM on rat cortical α2 receptor and over 10000 nM on rat cortical α1 receptor.

As for `CCCCCN1CCc2sc3ccccc3c(=O)c2C1` [Example 17, 1,2,3,4-tetrahydro-2-n-pentyl-10H-(1)-benzothiopyrano[3,2-c]pyridin-10-one hydrochloride], the IC50 in assay [1] is 70 nM; in assay [2] it was 39800 nM; at rat cortical α2 receptor it was 70 nM; on rat cortical α1 receptor it was 310 nM.

Take `O=c1c2c(sc3ccccc13)CCN(CC1CC1)C2` [Example 25, 2-cyclopropylmethyl-1,2,3,4-tetrahydro-10H-(1)-benzothiopyrano[3,2-c]pyridin-10-one]: the half-maximal inhibitory concentration (IC50) in assay [1] stood at 220 nM; in assay [2] it was 43000 nM; at rat cortical α2 receptor it was 60 nM; on rat cortical α1 receptor it was 1230 nM.

Regarding `C=CCN1CCc2sc3ccccc3c(=O)c2C1` [Example 34], the IC50 came to 2810 nM in assay [1], 37200 nM in assay [2], 390 nM on rat cortical α2 receptor and 3980 nM at rat cortical α1 receptor.

Regarding `CCOC(=O)CCN1CCc2sc3ccccc3c(=O)c2C1` [Example 21, 2-(2-ethoxycarbonylethyl)-1,2,3,4-tetrahydro-10H-(1)-benzothiopyrano[3,2-c]pyridin-10-one hydrochloride], the half-maximal inhibitory concentration (IC50) turned out to be 780 nM in assay [1], 100000 nM in assay [2], 1000 nM on rat cortical α2 receptor and 7100 nM on rat cortical α1 receptor.

In the case of `O=c1c2c(sc3c1ccc1ccccc13)CCNC2` [Example 8, 1,2,3,4-tetrahydro-12H-naphtho[1',2':6,5]thiopyrano[3,2-c]pyridin-12-one hydrochloride], the half-maximal inhibitory concentration (IC50) in assay [1] was determined as 680 nM; in assay [2] it was 8100 nM; at rat cortical α2 receptor, 1000 nM; at rat cortical α1 receptor, 740 nM.

Take `O=c1c2c(sc3ccc(F)cc13)CCN(CC1CCCCC1)C2` [Example 24, 2-cyclohexylmethyl-8-fluoro-1,2,3,4-tetrahydro-10H-(1)-benzothiopyrano[3,2-c]pyridin-10-one hydrochloride]: the IC50 is 40 nM in assay [1], over 100000 nM in assay [2], over 10000 nM at rat cortical α2 receptor and over 10000 nM at rat cortical α1 receptor.

Turning to `O=c1c2c(sc3ccc4ccccc4c13)CCNC2` [Example 5, 1,2,3,4-tetrahydro-12H-naphtho[1',2':5,6]thiopyrano[3,2-c]pyridin-12-one hydrochloride], the half-maximal inhibitory concentration (IC50) in assay [1] was 5200 nM; in assay [2], 19500 nM; at rat cortical α2 receptor, 1600 nM; at rat cortical α1 receptor it was 1700 nM.

For the compound `COc1ccc2c(=O)c3c(sc2c1)CCNC3` [Example 3, 1,2,3,4-tetrahydro-7-methoxy-10H-(1)-benzothiopyrano[3,2-c]pyridin-10-one hydrochloride], the IC50 is over 10000 nM in assay [1], 26900 nM in assay [2], 4300 nM on rat cortical α2 receptor and over 10000 nM on rat cortical α1 receptor.

In the case of `O=c1c2c(sc3ccccc13)CCN(CCC1CCCCC1)C2` [Example 30], the IC50 in assay [1] was 180 nM; in assay [2], over 100000 nM; at rat cortical α2 receptor, 190 nM; on rat cortical α1 receptor it was 1150 nM.

Consider `COc1ccc2sc3c(c(=O)c2c1)CNCC3` [Example 4, 1,2,3,4-tetrahydro-8-methoxy-10H-(1)-benzothiopyrano[3,2-c]pyridin-10-one hydrochloride], for which the IC50 in assay [1] was over 10000 nM; in assay [2] it was 57500 nM; on rat cortical α2 receptor, 2900 nM; at rat cortical α1 receptor, 7800 nM.

Turning to `CC(C)CCN1CCc2sc3ccccc3c(=O)c2C1` [Example 15, 1,2,3,4-tetrahydro-2-isopentyl-10H-(1)-benzothiopyrano[3,2-c]pyridin-10-onehydrochloride], the IC50 was 60 nM in assay [1], 87100 nM in assay [2], 170 nM at rat cortical α2 receptor and 680 nM at rat cortical α1 receptor.

On to `O=c1c2c(sc3ccccc13)CCN(CCO)C2` [Example 35], for which the IC50 was 10000 nM in assay [1], 71000 nM in assay [2], 3300 nM at rat cortical α2 receptor and 10000 nM on rat cortical α1 receptor.

As a reminder, the IC50 is the concentration at which inhibition is half-maximal.
